Assay [1] has as its target T1, Ectonucleotide pyrophosphatase/phosphodiesterase family member 1 (Homo sapiens) (UniProt P22413).
T1 sequence (whole entry): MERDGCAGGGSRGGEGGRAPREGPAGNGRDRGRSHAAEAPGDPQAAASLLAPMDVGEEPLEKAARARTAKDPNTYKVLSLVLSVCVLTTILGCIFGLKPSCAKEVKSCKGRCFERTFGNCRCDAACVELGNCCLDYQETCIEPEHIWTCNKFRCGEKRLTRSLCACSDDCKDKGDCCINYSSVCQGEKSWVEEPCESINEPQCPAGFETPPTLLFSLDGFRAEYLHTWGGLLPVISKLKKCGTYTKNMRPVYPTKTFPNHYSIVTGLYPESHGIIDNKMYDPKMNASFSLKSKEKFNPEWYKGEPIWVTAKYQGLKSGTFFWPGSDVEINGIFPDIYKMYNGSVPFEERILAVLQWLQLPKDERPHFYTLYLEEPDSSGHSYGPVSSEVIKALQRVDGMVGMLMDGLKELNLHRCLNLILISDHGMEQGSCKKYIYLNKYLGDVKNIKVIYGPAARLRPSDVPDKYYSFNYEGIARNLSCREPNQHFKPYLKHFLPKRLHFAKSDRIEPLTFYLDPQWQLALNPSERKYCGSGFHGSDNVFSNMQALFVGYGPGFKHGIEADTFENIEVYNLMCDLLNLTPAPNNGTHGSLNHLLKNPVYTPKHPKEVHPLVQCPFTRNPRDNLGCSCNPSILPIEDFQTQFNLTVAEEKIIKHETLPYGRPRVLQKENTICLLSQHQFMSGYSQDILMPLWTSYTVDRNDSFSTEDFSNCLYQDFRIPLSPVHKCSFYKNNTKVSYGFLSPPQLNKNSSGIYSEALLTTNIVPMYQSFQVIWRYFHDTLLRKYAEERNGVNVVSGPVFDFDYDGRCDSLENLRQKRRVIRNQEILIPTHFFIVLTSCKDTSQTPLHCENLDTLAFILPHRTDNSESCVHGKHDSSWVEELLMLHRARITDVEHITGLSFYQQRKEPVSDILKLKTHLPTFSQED
Nature of the assay: Inhibition of human recombinant NPP1 expressed in COS-7 cell membrane using p-nitrophenyl thymidine monophosphate substrate incubated for 35 mins by spectrophotometric analysis. Type of assay: cell membranes. Details: concentration or dose not given beside the values.

Assay [2] addresses Ectonucleotide pyrophosphatase/phosphodiesterase family member 3 (Homo sapiens) (UniProt O14638). In words: Inhibition of human recombinant NPP3 expressed in COS-7 cell membrane using p-nitrophenyl thymidine monophosphate substrate incubated for 35 mins by spectrophotometric analysis. The arrangement: concentration or dose not given beside the values.
Assay [3] concerns the target T2, Ectonucleotide pyrophosphatase/phosphodiesterase family member 3 (Homo sapiens, UniProt O14638).
T2 sequence (O14638 whole entry): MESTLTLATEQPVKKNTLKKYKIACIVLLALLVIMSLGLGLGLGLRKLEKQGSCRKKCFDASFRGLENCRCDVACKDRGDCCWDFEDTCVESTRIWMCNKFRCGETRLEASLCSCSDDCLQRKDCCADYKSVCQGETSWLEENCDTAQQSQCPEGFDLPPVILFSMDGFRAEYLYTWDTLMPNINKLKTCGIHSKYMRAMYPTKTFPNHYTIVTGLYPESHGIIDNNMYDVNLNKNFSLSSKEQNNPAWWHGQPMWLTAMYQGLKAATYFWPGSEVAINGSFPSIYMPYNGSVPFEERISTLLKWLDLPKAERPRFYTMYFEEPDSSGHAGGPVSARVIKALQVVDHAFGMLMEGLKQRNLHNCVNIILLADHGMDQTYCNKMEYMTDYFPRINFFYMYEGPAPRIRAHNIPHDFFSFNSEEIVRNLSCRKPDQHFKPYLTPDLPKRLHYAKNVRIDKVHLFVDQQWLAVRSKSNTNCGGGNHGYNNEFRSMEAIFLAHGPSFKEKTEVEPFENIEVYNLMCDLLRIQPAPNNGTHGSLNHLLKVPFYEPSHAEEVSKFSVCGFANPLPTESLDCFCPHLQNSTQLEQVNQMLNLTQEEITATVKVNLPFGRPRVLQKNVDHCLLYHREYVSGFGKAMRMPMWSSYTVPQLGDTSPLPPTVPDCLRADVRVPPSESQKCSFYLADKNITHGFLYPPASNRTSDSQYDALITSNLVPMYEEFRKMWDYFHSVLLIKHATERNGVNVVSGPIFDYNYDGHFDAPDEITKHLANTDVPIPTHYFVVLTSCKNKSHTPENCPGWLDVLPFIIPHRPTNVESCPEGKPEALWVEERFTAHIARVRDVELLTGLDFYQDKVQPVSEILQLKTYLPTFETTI
Nature of the assay: Inhibition of human recombinant NPP3 expressed in COS-7 cell membrane […] using p-nitrophenyl thymidine monophosphate substrate incubated for 35 mins by spectrophotometric analysis. The format is cell membranes.

The target in assay [4] is T3, Ectonucleotide pyrophosphatase/phosphodiesterase family member 1 (Homo sapiens, UniProt P22413).
T3 sequence (P22413 whole entry): T1 sequence (whole entry)
Nature of the assay: Inhibition of human recombinant NPP1 expressed in COS-7 cell membrane […] using p-nitrophenyl thymidine monophosphate substrate incubated for 35 mins by spectrophotometric analysis. Type of assay: cell membranes.

Assay [5] has as its target T4, Ectonucleotide pyrophosphatase/phosphodiesterase family member 3 (Homo sapiens) (UniProt O14638).
T4 sequence (whole entry): T2 sequence (O14638 whole entry)
In words: Potency index, ratio of IC50 for suramin to IC50 for test compound for human recombinant NPP3 expressed in COS-7 cell membrane using p-nitrophenyl thymidine monophosphate substrate incubated for 35 mins by spectrophotometric analysis. The format is cell membranes.

In assay [6] the target is T1, Ectonucleotide pyrophosphatase/phosphodiesterase family member 1 (Homo sapiens). Nature of the assay: Potency index, ratio of IC50 for suramin to IC50 for test compound for human recombinant NPP1 expressed in COS-7 cell membrane using p-nitrophenyl thymidine monophosphate substrate incubated for 35 mins by spectrophotometric analysis. Type of assay: cell membranes.

The values that follow come from ChEMBL document CHEMBL4706555, “Synthesis of biphenyl oxazole derivatives via Suzuki coupling and biological evaluations as nucleotide pyrophosphatase/phosphodiesterase-1 and -3 inhibitors” (Eur J Med Chem, 2020).

The inhibition is how much of the control response was suppressed. In the case of `c1ccc(-c2ccc(-c3coc(-c4ccccc4-c4ccccc4)n3)cc2)cc1`, the inhibition is 33% in assay [1] and 47% in assay [2].
On the same counts, the results for `CCOc1ccccc1-c1nc(-c2ccc(-c3ccccc3)cc2)co1` are 27% and 48%.
Usually IC50 stands for the concentration that gives 50% inhibition. Take `Cc1cccc(-c2ccc(-c3coc(-c4ccccc4-c4cccc(C)c4)n3)cc2)c1`: the inhibition in assay [1] came out at 36%. In addition, the IC50 in assay [3] turned out to be 2.21 µM.
Consider `COc1ccc(-c2ccc(-c3coc(-c4ccccc4)n3)cc2)cc1`, for which the figures for the IC50 in assay [4] and in assay [3] were 17.2 µM and 3.73 µM, respectively.
For `c1ccc(-c2nc(-c3ccc(-c4cccc5ccccc45)cc3)co2)cc1`, the inhibition in assay [1] worked out at 44%; in assay [2] it was 43%.
With `Cc1cccc(-c2ccc(-c3coc(C)n3)cc2)c1`, in assay [1], the inhibition amounted to 43%. The half-inhibitory concentration (IC50) in assay [3] came to 1.7 µM.
On to `Cc1nc(-c2ccc(-c3ccccc3C)cc2)co1`, for which the inhibition in assay [1] was 40%; in assay [2], 45%.
For `Cc1cccc(-c2ccc(-c3coc(-c4ccccc4)n3)cc2)c1`, in assay [1], the inhibition came out at 48%.
In the case of `Cc1nc(-c2ccc(-c3cccc4ccccc34)cc2)co1`, the IC50 in assay [4] amounted to 2.41 µM; in assay [3], 0.15 µM.
With `Cc1ccc(-c2ccc(-c3coc(C)n3)cc2)cc1`, the IC50 in assay [4] is 2.56 µM; in assay [3] it was 5.06 µM.
Take `c1ccc(-c2ccc(-c3coc(-c4ccccc4)n3)cc2)cc1`: the inhibition in assay [1] amounted to 31%; in assay [2] it was 49%.
With `COc1ccc(-c2ccc(-c3coc(C)n3)cc2)cc1`, the inhibition in assay [1] came out at 38%. Also, the Ratio IC50 in assay [5] amounted to 5.3. Also, the IC50 in assay [3] was determined as 0.17 µM.
For the compound `Cc1nc(-c2ccc(-c3ccc(OCc4ccccc4)cc3)cc2)co1`, the IC50 was 1.44 µM in assay [4] and 1.31 µM in assay [3].
Taken in the same sequence, the figures for `Cc1ccccc1-c1ccc(-c2coc(-c3ccccc3)n2)cc1` were 0.42 µM and 4.23 µM.
On to `CCOc1ccccc1-c1nc(-c2ccc(-c3ccc(C)cc3)cc2)co1`, for which the IC50 in assay [4] was determined as 9.23 µM; in assay [3], 11.1 µM.
Regarding `CCOc1ccccc1-c1nc(-c2ccc(-c3cccc4ccccc34)cc2)co1`, in assay [4], the IC50 is 0.15 µM. Besides, in assay [6], the Ratio IC50 is 51.8. The inhibition in assay [2] came to 40%.
Consider `Cc1nc(-c2ccc(-c3ccccc3)cc2)co1`, for which the results for the inhibition in assay [1] and in assay [2] were 46% and 43%, respectively.
